# Test results published in paper PMC11725581, “Developing novel Lin28 inhibitors by computer aided drug design” (Cell Death Discovery, 2025).
# Entries after “also recorded” stand apart in the source; their conditions may differ.
# Tests used:
# Lin28b ZKD = target: T1, Lin28b ZKD (Homo sapiens, UniProt Q6ZN17); assay: EMSA, Lin28b ZKD:pre-let-7d complex formation; type: binding; conditions: 1 μM Lin28 ZKD, 10 nM IRDye800-labeled pre-let-7d probe
# T1 sequence (Q6ZN17 127-166 limits assumed): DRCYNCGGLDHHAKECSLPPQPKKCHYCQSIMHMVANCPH
# Procedure: We next validated the newly developed compounds using EMSA, a non-florescent-based assay to detect Lin28b ZKD:pre-let-7 complex formation. Similar to the FP assays, we first optimized the experimental conditions by titrating: (1) IRDye800-labeled pre-let-7d RNA probe, (2) Lin28b ZKD protein, and (3) non-labeled pre-let-7 probe as a competitor (Fig. 2C). For the validation experiments, 1 μM Lin28 ZKD and 10 nM of IRDye800-labeled pre-let-7d probe were mixed with each candidate compound. Compounds C1632 and Ln15 were used as control Lin28 inhibitors, respectively. […] Regardless, we use these two biochemical assays to shortlist the most promising compounds for further characterization. […] While our inhibitors directly target the Lin28 ZKD, it is unclear whether C1632 may bind to domains other than the ZKD or allosterically disrupt Lin28’s capacity to bind its RNA substrates.
# EMSA followed the standard protocols we published. An IRDye800CWN-labeled pre-Let-7d RNA probe (5’-IRD800CWN-[…]-3’) was purchased from IDT (Coralville, IA, USA). Lin28a or Lin28b proteins were incubated with 300 nM of probe in a standard 20 uL EMSA reaction in a reaction buffer containing 20 mM HEPES-NaOH, pH 7.4, 2 mM DTT, 3 mM MgCl2, 0.05% NP-40, protease inhibitors, and 0.1 ug poly[dI:dC]. After incubation for 30 min at 37 °C, reactions were loaded onto 4% non-denatured polyacrylamide gel in 0.5× TBE buffer. The RNA oligo bands were visualized by using the Li-Cor Odyssey 9120 Infrared Imaging System.
# [1] = system: Lin28b protein expression in DuNE cells; assay: Lin28b protein levels by immunoblotting in DuNE cells; type: cell-based; conditions: 20uM, 72 h
# Procedure: We further tested whether the 13 candidate compounds could penetrate the cell membrane, endure cell-mediated metabolism and excretion, and inhibit Lin28 activities inside cancer cells. […] Since let-7 and Lin28b mutually regulate each other’s expression, increased let-7 expression by Lin28 inhibitors would suppress Lin28b protein levels.
# Fig. 3 Validate CADD predicted compounds by cell-based assays. A, B DuNE cells were treated with Lin28b inhibitors for 72 h. Let-7d RNA levels were measured by real-time qPCR (A) and Lin28b protein levels were measured by immunoblotting (B). […] Cell proliferation rates were measured by Incucyte. D Overlay of 1H-15N HSQC spectra for Lin28b-ZKD (black), Lin28b-ZKD + Ln15 (orange), and Lin28b-ZKD + Ln268 (blue). Ligands were added in a 20:1 molar ratio. Approximately 20 residues are seen to shift (from black to orange/blue), with ca. 5 resonances disappearing for Lin28b-ZKD in the presence of Ln268. E Overlay of the 20 NMR models for 2CQF (gray) and 2LI8 (blue) showing the rearrangement of residues 137–160 in going from Lin28b-ZKD alone to the conformation with RNA present. The conformation of Lin28b-ZKD in the presence of the ligands described herein might resemble that of 2LI8, but with a larger conformational spread. All results are presented as the mean ± SD.
# Total RNA was extracted by TRIZOL reagent (Invitrogen), treated with deoxyribonuclease and reversely transcribed by random hexamers and superscript II (Invitrogen). Real-time qPCR was performed on the ABI PRISM 7900 HT system (Applied Biosystems) using the FastStart Universal SYBR Green Master mix (Roche) following standard protocol as we reported. All real-time qPCR assays were carried out in triplicates from three independent cDNA syntheses. For immunoblotting assays, whole cell lysis was extracted by a buffer containing 50mM of Tris pH8.0, 150mM of NaCl, 1% NP40, 0.5% sodium deoxycholate, 0.1% SDS and proteinase and phosphatase inhibitors (Roche). Protein lysis separated by SDS-PAGE, transferred to polyvinylidene difluoride membrane, and blotted by specific antibodies.
# [2] = system: Lin28a-positive IGROV-1 cells; assay: Cell proliferation (Incucyte), IGROV-1 cells; type: cell-based
# DuNE spheroids = assay: DuNE 3D spheroid growth (Incucyte); type: cell-based
# Source text: CSCs have characteristic tumorigenic, self-renewal, and differentiation properties. The self-renewal ability is hijacked by CSCs that makes them both tumorigenic and capable of sustaining long-term tumor growth, which can be evaluated by 3D spheroid and colony formation assays. We established a DuNE spheroid model in which DuNE cells formed 3D spheroids in 96-well plates (Figure S3). By integrating this 3D culture with the Incucyte live-cell imaging system, we quantified the sizes of the spheroid growth over 0–6 days to generate a spheroid growth curve. Using this model system, we treated the DuNE spheroids with increasing doses (0–100 μM) of C1632, Ln15, and Ln268 for 0–6 days. […] In addition, classic colony formation assays were used to measure the stemness in the DuNE model. Colony formation counts, which were ~50 under vehicle treatment after 14 days, decreased by 22% in C1632-treated plates, and by 75% and 96% in the Ln15 and Ln268 treated plates, respectively (Fig. 4D).
# For a spheroid generation, 1000 cells/well were seeded in 96-well ULA round-bottomed plates (Corning, Amsterdam) using a multichannel pipette. 3D multicellular spheroids were spontaneously generated after 24 h culture. Plates were incubated for 6 days at 37 °C, 5% CO2, and 95% humidity. DuNE and Du145 cells were cultured in DMEM with 10% FBS. Fully automated image analysis of tumor spheroids was carried out with the Incucyte® S3 Live-Cell Analysis System. The size and shape of multicellular spheroids were analyzed by using the Incucyte® Spheroid Analysis Software Module.
# [3] = system: Du145 (Lin28b-negative line); assay: Cell proliferation (Incucyte), Du145 cells; type: cell-based
# Source text: (§1) To further evaluate whether the suppressive effects of Ln268 are specific to Lin28-positive cancer cells, we compared cell growth rates of DuNE (Lin28b-positive line) and Du145 (Lin28b-negative line), both of which are Lin28a-negative. DuNE has the same genomic background with Du145 except for the transduction of the SRRM4 gene. […] Furthermore, Ln268 had no impact on the cell growth of DuNE(KO) cells, in which the Lin28b gene was knocked out by CRISPR (Fig. 5C). […] We also tested several ovarian and endometrial cancer cell lines with different Lin28a and Lin28b expression profiles (Fig. 5E).
# ANA3CA cells = assay: Cell proliferation (Incucyte), ANA3CA; type: cell-based; conditions: Lin28a/Lin28b-positive
# Source text: as §1
# HEC50 cells = assay: Cell proliferation (Incucyte), HEC50; type: cell-based; conditions: Lin28a/Lin28b-negative
# Source text: as §1
# HEC1B cells = assay: Cell proliferation (Incucyte), HEC1B; type: cell-based; conditions: Lin28a/Lin28b-negative
# Source text: as §1
smiles,measurement,setting,value
O=c1[nH]c(Nc2ccc(F)cc2O)cs1 [Ln268],inhibition of Lin28b ZKD:pre-let-7d complex formation (EMSA),Lin28b ZKD,capable of inhibiting Lin28:pre-let-7d complex formation in a dose-dependent manner
same,effect on Lin28b protein expression,[1],suppressed Lin28b protein expression
same,"cell proliferation, IGROV-1",[2],strongly inhibited cell proliferation; also recorded: strong suppressive effects
same,effect on DuNE spheroid growth,DuNE spheroids,strongest potency among all 13 candidate compounds; also recorded: efficiently blocked DuNE spheroid growth in a time-dependent manner
same,potency improvement over parent compound Ln15 (spheroid growth),DuNE spheroids,~ 2 fold
same,potency relative to C1632 (spheroid growth),DuNE spheroids,approximately 10 fold
same,IC50,"DuNE spheroids; 0-100 μM, 0-6 days, read-out: concentration to achieve 50% spheroid growth inhibition",10 µM
same,effect on Du145 cell growth and cell morphology,[3],no impact
same,effect on growth of ANA3CA cells,ANA3CA cells,suppressed the growth
same,effect on growth of HEC50 cells,HEC50 cells,no or minimal impacts
same,effect on growth of HEC1B cells,HEC1B cells,no or minimal impacts
